Laboratory results reported in ChEMBL document CHEMBL5257079, “Discovery of FXR/PPARγ dual partial agonist” (Bioorg Med Chem, 2023).
pEC50, pIC50: −log10 of the molar value.

How the values were obtained:
[1] = target: T1, Bile acid receptor (Homo sapiens, UniProt Q96RI1); assay: Partial agonist activity at FXR-LBD-GST (unknown origin) by TR-FRET assay; conditions: for pEC50: read-out: EC50
T1 sequence (Q96RI1 whole entry): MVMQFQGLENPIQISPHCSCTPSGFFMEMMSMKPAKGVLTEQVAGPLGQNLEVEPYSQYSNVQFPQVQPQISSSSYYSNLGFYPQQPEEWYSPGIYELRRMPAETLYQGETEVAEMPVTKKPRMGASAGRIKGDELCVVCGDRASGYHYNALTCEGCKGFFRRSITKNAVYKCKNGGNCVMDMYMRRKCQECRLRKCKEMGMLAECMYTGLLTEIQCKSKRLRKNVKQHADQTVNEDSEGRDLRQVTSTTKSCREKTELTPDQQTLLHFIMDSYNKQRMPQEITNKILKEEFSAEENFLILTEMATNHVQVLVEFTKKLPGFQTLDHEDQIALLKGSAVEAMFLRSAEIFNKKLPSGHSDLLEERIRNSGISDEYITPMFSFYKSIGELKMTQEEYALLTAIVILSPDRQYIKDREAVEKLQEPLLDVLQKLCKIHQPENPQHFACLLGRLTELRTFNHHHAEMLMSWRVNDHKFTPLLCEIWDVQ

[2] = Metabolic stability in mouse liver microsomes assessed as parent compound remaining after 30 mins; type: ADME, Microsome; conditions: read-out: Stability
[3] = Metabolic stability in mouse liver microsomes assessed as half life; type: ADME, Microsome
[4] = target: T1, Bile acid receptor; assay: Antagonist activity at FXR-LBD-GST (unknown origin) in presence of GW4064
[5] = target: T2, Bile acid receptor (Homo sapiens) (UniProt Q96RI1); assay: Partial agonist activity at human FXR expressed in Huh-7 cells in presence of CDCA by luciferase reporter gene assay relative to GW4064; type: cell-based
T2 sequence (whole entry): T1 sequence (Q96RI1 whole entry)

[6] = target: T1, Bile acid receptor; assay: Partial agonist activity at human FXR expressed in Huh-7 cells in presence of CDCA by luciferase reporter gene assay; type: cell-based

Compound	pEC50 [1]	EC50 [1]	other results
CC(C)(C)c1ccc(-c2cccc3c2ncn3Cc2ccc(C(=O)O)cc2)cc1	6.12		
CC(C)(C)c1ccc(NC(=O)c2ccc3ncn(Cc4ccc(C(=O)O)cc4)c3c2)cc1		Not Active	
CC(C)(C)c1ccc(-n2cnc3c(-c4ccc(C(=O)O)cc4)cccc32)cc1	6.29		remaining at 0.5 h [2]: 36.9%; half-life [3]: 25 min; pIC50 [4]: 5.00
CC(C)(C)c1ccc(-n2cnc3c(NC(=O)c4ccc(C(=O)O)cc4)cccc32)cc1	6.31		remaining at 0.5 h [2]: 37.9%; half-life [3]: 24.6 min
CC(C)(C)c1ccc(Cn2cnc3c(NC(=O)c4ccc(C(=O)O)cc4)cccc32)cc1	6.85		Activity [5]: 6%; pEC50 [6]: 5.66
CC(C)(C)c1ccc(C(=O)Nc2cccc3c2ncn3Cc2ccc(C(=O)O)cc2)cc1		Not Active	
CC(C)(C)c1ccc(Cn2cnc3ccc(C(=O)Nc4ccc(C(=O)O)cc4)cc32)cc1		Not Active	
CC(C)(C)c1ccc(Cn2c(-c3ccc(C(=O)O)cc3)nc3ccccc32)cc1		Not Active	
CC(C)(C)c1ccc(NC(=O)c2ccc3c(c2)ncn3Cc2ccc(C(=O)O)cc2)cc1		Not Active	
CC(C)(C)c1ccc(C(=O)Nc2cccc3c2ncn3-c2ccc(C(=O)O)cc2)cc1		Not Active	
CC(C)(C)c1ccc(Cn2cnc3cc(C(=O)Nc4ccc(C(=O)O)cc4)ccc32)cc1		Not Active	
CC(C)(C)c1ccc(-c2nc3ccccc3n2Cc2ccc(C(=O)O)cc2)cc1		Not Active	
CC(C)(C)c1ccc(Cn2cnc3c(NC(=O)Cc4ccc(C(=O)O)cc4)cccc32)cc1	6.39		
CC(C)(C)c1ccc(Cn2cnc3c(-c4ccc(C(=O)O)cc4)cccc32)cc1	6.85		
CC(C)(C)c1ccc(-c2cccc3c2ncn3-c2ccc(C(=O)O)cc2)cc1		Not Active	
